Laboratory results from PubChem BioAssay AID1963967 (Molecular Pharmacology Branch, DTP, NCI, 2024).

Test system: 855422-203-R-J1-PDC spheroids with HUVEC/MSC, viability
Experiment: Anticancer human tumor 855422-203-R-J1-PDC patient-derived bladder carcinoma cell line growth inhibition [PI3K]
Settings: for viability, T/C: stronger effect = lower value
Description: Combinatorial screen of targeted agents with the PI3K inhibitors inavolisib, alpelisib, duvelisib, and copanlisib in multi-cell type tumor spheroids
A high-throughput screen of multi-cell type tumor spheroids was designed to identify active combinations of targeted small molecules and PI3K pathway inhibitors. Complex spheroids include a stromal component modeled by human endothelial cells (HUVEC) and fibroblasts modeled by human mesenchymal stem cells (MSCs). The concentration ranges selected for each drug and investigational agent were based upon clinically achievable concentrations if the clinical Cmax of the agent was known.
Compounds. The drugs and investigational agents: inavolisib (NSC800729), alpelisib (NSC765974), duvelisib (NSC772469), copanlisib (NSC816437), ipatasertib (NSC767898), afuresertib (NSC778305), talazoparib (NSC767125), sapanisertib (NSC764658), selumetinib (NSC741078), tovorafenib (DAY101, NSC766906), vemurafenib (NSC761431), ravoxertinib (NSC781343), sotorasib (NSC818433), MRTX1133 (NSC 836407), abemaciclib (NSC 768073), palbociclib (NSC758247), venetoclax (NSC 766270), SY5609 (NSC837396), enzalutamide (NSC755605), and darolutamide (NSC825331), were obtained from the National Cancer Institute (NCI) Developmental Therapeutics Program Chemical Repository. The FDA-approved anticancer drug set is available from the NCI Developmental Therapeutics Program. […] The stock solutions were prepared in dimethyl sulfoxide (DMSO, Sigma-Aldrich, St. Louis, MO, cat. D2650) at 800-fold the tested concentration and stored at -70 degrees C prior to their use. All drugs and investigational agents were tested over a range starting from a high concentration at or near the clinical Cmax and decreasing in half-log increments. If the clinical Cmax for an agent had not been determined, the highest concentration tested was 10 microM.
Cell Culture. All cells were maintained in an incubator at 37 degrees C and 5% CO2 with 95% humidity. The PDC lines were cultured according to standard operating procedures established by the NCI PDMR (https://pdmr.cancer.gov/sops/default.htm). All PDCs were thawed and cultured in Matrigel-coated flasks prepared with a working solution of 1X Ham's F-12 nutrient mix, without supplementation (Invitrogen, Waltham, MA, cat. 11765054), 100 U/mL penicillin-streptomycin (Invitrogen, cat. 15140122), and 2.5% Matrigel (Corning Inc., Corning, NY, cat. 354248) for the first three passages. The 354836-022-R-J1-PDC, 475296-252-R-J1-PDC, and 997726-040-R-J2-PDC lines were cultured in 6A media, which includes advanced DMEM/F-12 (Thermo Fisher Scientific, cat. 12634028), 10 mM HEPES (Thermo Fisher Scientific, cat. 15630080), 1X GlutaMAX supplement (Thermo Fisher Scientific, cat. 35050061), 0.1 mg/mL primocin (InvivoGen, San Diego, CA, cat. ant-pm-2), 10% defined fetal bovine serum, heat inactivated (HyClone Laboratories Inc., Logan, UT, cat. SH30070.03HI), 50% L-WRN conditioned media (ATCC, cat. CRL-3276), 1.25 mM N-Acetyl-L-cysteine (Sigma-Aldrich, cat. A9165), 10 mM nicotinamide (Sigma-Aldrich, cat. N0636), 1X B-27 supplement (Thermo Fisher Scientific, cat. 17504044), 1X N-2 supplement (Thermo Fisher Scientific, cat. 17502048), and 10 microM Y-27632 dihydrochloride (Tocris Bioscience, Bristol, United Kingdom, cat. 1254). The 624824-186-R-J2-PDC line was cultured in 6C/Colon 1B media, which includes all 6A media components plus 50 ng/mL human EGF recombinant protein (Thermo Fisher Scientific, cat. PHG0311). […]
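Note: agents incubated with spheroids for one week before read-out.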
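Throughout, for viability, T/C: 100% = DMSO vehicle-treated control wells.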

Q: With `CNC(=O)c1ccc(N2C(=S)N(c3ccc(C#N)c(C(F)(F)F)c3)C(=O)C2(C)C)cc1F` + CC(Nc1ccc2c(c1)OCCn1cc(N3C(=O)OCC3C(F)F)nc1-2)C(N)=O as the compound, how does the IC50 (curve of first compound, second compound 0.00316 µM) read?
A: > 10 µM

Q: What about the IC50 (curve of first compound, second compound 0.01 µM) of the same compound?
A: > 10 µM

Q: And the IC50 (curve of first compound, second compound 0.0316 µM)?
A: > 10 µM

Q: What about the IC50 (curve of first compound, second compound 0.1 µM) of the same compound?
A: > 10 µM

Q: What about the IC50 (curve of first compound, second compound 0.316 µM) of the same compound?
A: 0.265 µM

Q: And the IC50 (curve of first compound, second compound 1 µM)?
A: < 0.0316 µM

Q: What about the viability, T/C (second compound 0.00316 µM, first compound 0.0316 µM) of the same compound?
A: 106%

Q: And the viability, T/C (second compound 0.00316 µM, first compound 0.1 µM)?
A: 83.8%

Q: And the viability, T/C (second compound 0.00316 µM, first compound 0.316 µM)?
A: 95.8%

Q: And the viability, T/C (second compound 0.00316 µM, first compound 1 µM)?
A: 81.2%

Q: What about the viability, T/C (second compound 0.00316 µM, first compound 3.16 µM) of the same compound?
A: 72.9%

Q: And the viability, T/C (second compound 0.00316 µM, first compound 10 µM)?
A: 65.4%

Q: And the viability, T/C (second compound 0.01 µM, first compound 0.0316 µM)?
A: 102%

Q: And the viability, T/C (second compound 0.01 µM, first compound 0.1 µM)?
A: 91.2%

Q: What about the viability, T/C (second compound 0.01 µM, first compound 0.316 µM) of the same compound?
A: 90%

Q: And the viability, T/C (second compound 0.01 µM, first compound 1 µM)?
A: 77.3%

Q: And the viability, T/C (second compound 0.01 µM, first compound 3.16 µM)?
A: 79%

Q: What about the viability, T/C (second compound 0.01 µM, first compound 10 µM) of the same compound?
A: 72.5%

Q: And the viability, T/C (second compound 0.0316 µM, first compound 0.0316 µM)?
A: 86.6%

Q: And the viability, T/C (second compound 0.0316 µM, first compound 0.1 µM)?
A: 82.1%

Q: What about the viability, T/C (second compound 0.0316 µM, first compound 0.316 µM) of the same compound?
A: 79.9%

Q: And the viability, T/C (second compound 0.0316 µM, first compound 1 µM)?
A: 66.6%

Q: What about the viability, T/C (second compound 0.0316 µM, first compound 3.16 µM) of the same compound?
A: 72.8%

Q: What about the viability, T/C (second compound 0.0316 µM, first compound 10 µM) of the same compound?
A: 64.3%

Q: What about the viability, T/C (second compound 0.1 µM, first compound 0.0316 µM) of the same compound?
A: 76.9%

Q: And the viability, T/C (second compound 0.1 µM, first compound 0.1 µM)?
A: 76.7%

Q: What about the viability, T/C (second compound 0.1 µM, first compound 0.316 µM) of the same compound?
A: 83.3%

Q: And the viability, T/C (second compound 0.1 µM, first compound 1 µM)?
A: 63.1%

Q: And the viability, T/C (second compound 0.1 µM, first compound 3.16 µM)?
A: 62%

Q: What about the viability, T/C (second compound 0.1 µM, first compound 10 µM) of the same compound?
A: 52.8%

Q: And the viability, T/C (second compound 0.316 µM, first compound 0.0316 µM)?
A: 51.4%

Q: What about the viability, T/C (second compound 0.316 µM, first compound 0.1 µM) of the same compound?
A: 46.9%

Q: What about the viability, T/C (second compound 0.316 µM, first compound 0.316 µM) of the same compound?
A: 53.6%

Q: And the viability, T/C (second compound 0.316 µM, first compound 1 µM)?
A: 49.1%

Q: And the viability, T/C (second compound 0.316 µM, first compound 3.16 µM)?
A: 52.7%

Q: What about the viability, T/C (second compound 0.316 µM, first compound 10 µM) of the same compound?
A: 43.1%

Q: And the viability, T/C (second compound 1 µM, first compound 0.0316 µM)?
A: 37.2%

Q: What about the viability, T/C (second compound 1 µM, first compound 0.1 µM) of the same compound?
A: 36.4%

Q: What about the viability, T/C (second compound 1 µM, first compound 0.316 µM) of the same compound?
A: 37%

Q: And the viability, T/C (second compound 1 µM, first compound 1 µM)?
A: 41.3%

Q: And the viability, T/C (second compound 1 µM, first compound 3.16 µM)?
A: 38.5%

Q: And the viability, T/C (second compound 1 µM, first compound 10 µM)?
A: 33.8%

Q: Which viability, T/C (compound 0.00316 µM) does the source give for `COc1c(OCCCN2CCOCC2)ccc2c3n(c(=NC(=O)c4cnc(N)nc4)nc12)CCN3` here?
A: 100% [middle of 8 runs]

Q: What about the viability, T/C (compound 0.01 µM) of the same compound?
A: 92% [middle of 8 runs]

Q: And the viability, T/C (compound 0.0316 µM)?
A: 71.8% [middle of 8 runs]

Q: What about the viability, T/C (compound 0.1 µM) of the same compound?
A: 30.5% [middle of 8 runs]

Q: And the viability, T/C (compound 0.316 µM)?
A: 9.42% [middle of 8 runs]

Q: And the viability, T/C (compound 1 µM)?
A: 4.6% [middle of 8 runs]

Q: What about the IC50 (compound alone, run of 05/09/2023) of the same compound?
A: 58.2 nM [middle of 8 runs]
